Results published in publication PMC6586154 (Clinical Pharmacology in Drug Development, 2018).
Values belong to the compound of their own block, whether it stands above or below them.

Columns and labels:
[1] = Ertugliflozin-glimepiride drug-drug interaction study, plasma pharmacokinetics; assay type: in vivo, human; settings: for GMR (90% CI) Cmax, analyte Glimepiride: Test Ertugliflozin + Glimepiride / Reference Glimepiride; for Tmax / AUC(0-t) / Cmax / half-life: oral
[2] = Ertugliflozin-simvastatin drug-drug interaction study, plasma pharmacokinetics
[3] = Ertugliflozin-metformin drug-drug interaction study, plasma pharmacokinetics
[4] = Ertugliflozin-sitagliptin drug-drug interaction study, plasma pharmacokinetics; assay type: in vivo, human; settings: for AUC(0-inf): po
[5] = Ertugliflozin plasma PK summarized across all 4 DDI studies; assay type: in vivo; settings: human, oral, 15 mg
[6] = Safety and tolerability across all 4 DDI studies; assay type: in vivo, human; settings: single dose ertugliflozin 15 mg alone or in combination with sitagliptin, metformin, glimepiride, or simvastatin; healthy subjects
[7] = cited from earlier work
OAT3 [8] = settings: in vitro studies; cited from earlier work
OCT2 [9] = settings: in vitro studies; cited from earlier work
P‐glycoprotein = settings: at clinically relevant concentrations; cited from earlier work
[10] = tested on: breast cancer resistance protein; settings: at clinically relevant concentrations; cited from earlier work
OATP1B1 = settings: cited from earlier work
OATP1B3 = settings: cited from earlier work
OATP2B1 = settings: cited from earlier work
OCT1 = settings: cited from earlier work
OAT1 = settings: cited from earlier work
OAT3 [11] = settings: cited from earlier work
OCT2 [12] = settings: cited from earlier work
[13] = simvastatin 40 mg coadministered with ertugliflozin 15 mg vs alone
[14] = both, human, plasma, oral, 15 mg

GMR (90% CI) Cmax, analyte Glimepiride [1]: 97.4 (71.1, 133.5) %
GMR (90% CI) Cmax, analyte Glimepiride ([1]; listed as glimepiride): 97.4%
Tmax ([1]; both, human, plasma): 1 to 12 h
AUC(0-t) ([1]; both, human, plasma, 1 mg): 218 ng·h/mL
Cmax ([1]; both, human, plasma, 1 mg): 34.4 ng/mL
half-life ([1]; both, human, plasma, 1 mg): 5.89 ± 2.79 h
AUC(0-inf) ([1]; both, human, plasma, po, 1 mg): 249 ng·h/mL
Intrasubject variability for Cmax of glimepiride ([1]; glimepiride 1 mg alone or with ertugliflozin 15 mg): 53.5%
Compound: CCC1=C(C)CN(C(=O)NCCc2ccc(S(=O)(=O)NC(=O)N[C@H]3CC[C@H](C)CC3)cc2)C1=O [Glimepiride]

GMR (90% CI) Cmax, analyte Sitagliptin ([4]; Test Ertugliflozin + Sitagliptin / Reference Sitagliptin): 101.7 (91.7, 112.8) %
half-life ([4]; both, human, plasma, oral, 100 mg): 11 ± 2.89 h
AUC(0-t) ([4]; human, plasma, oral, 100 mg): 6.95 µM·h
Cmax ([4]; human, plasma, oral, 100 mg): 814 nM
AUC(0-inf) ([4]; human, plasma, 100 mg): 7.02 µM·h
Compound: N[C@@H](CC(=O)N1CCn2c(nnc2C(F)(F)F)C1)Cc1cc(F)c(F)cc1F [Sitagliptin, reference compound]

Increase in geometric mean AUCinf of simvastatin [2, 13]: 24%
Increase in geometric mean Cmax of simvastatin [2, 13]: 19%
Compound: CCC(C)(C)C(=O)O[C@H]1C[C@@H](C)C=C2C=C[C@H](C)[C@H](CC[C@@H]3C[C@@H](O)CC(=O)O3)[C@H]21 [Simvastatin, reference compound]

More lines, now with the values behind:

Compound: CCC(C)(C)C(=O)O[C@H]1C[C@@H](C)C=C2C=C[C@H](C)[C@H](CC[C@@H](O)C[C@@H](O)CC(=O)O)[C@H]21 [Simvastatin Acid, simvastatin acid]
Increase in geometric mean AUCinf of simvastatin acid [2, 13]: 30%
Increase in geometric mean Cmax of simvastatin acid [2, 13]: 16%

Compound: CN(C)C(=N)N=C(N)N [Metformin, reference compound]
GMR (90% CI) Cmax, analyte Metformin ([3]; Test Ertugliflozin + Metformin / Reference Metformin): 94.0 (82.9, 106.6) %
Metformin Tmax ([3]; plasma, Metformin 1000 mg alone (N = 18), median (range)): 2.00 (0.50–4.00) h

Compound: CCOc1ccc(Cc2cc([C@]34OC[C@](CO)(O3)[C@@H](O)[C@H](O)[C@H]4O)ccc2Cl)cc1 [Ertugliflozin]
GMR (90% CI) Cmax, analyte Ertugliflozin ([4]; Test Ertugliflozin + Sitagliptin / Reference Ertugliflozin): 98.2 (91.2, 105.7) %
AUC(0-t) ([4]; human, plasma, oral, 15 mg): 1430 ng·h/mL
Cmax ([4]; human, plasma, oral, 15 mg): 270 ng/mL
Tmax ([4]; human, plasma, oral, 15 mg): 1 h
AUC(0-inf) ([4]; human, plasma, 15 mg): 1460 ng·h/mL
GMR (90% CI) Cmax, analyte Ertugliflozin ([1]; Test Ertugliflozin + Glimepiride / Reference Ertugliflozin): 98.2 (92.2, 104.6) %
AUC(0-t) ([1]; both, human, plasma, 15 mg): 1230 ng·h/mL
Cmax ([1]; both, human, plasma, 15 mg): 146 ng/mL
Tmax ([1]; both, human, plasma, 15 mg): 2 h
half-life ([1]; both, human, plasma, 15 mg): 10.6 ± 2.44 h
Tmax [5]: 1 to 3 h
half-life [5]: 10.6 to 12.6 h
Tolerability [6]: well tolerated
Absolute (oral) bioavailability [7]: approximately 100%
Renal excretion of unchanged ertugliflozin ([7]; human, in vivo): 1.5 % of the administered dose
Contribution of glucuronidation to metabolic clearance ([7]; major metabolic pathway): 86%
Contribution of oxidative metabolism ([7]; minor pathway): 12%
Inhibition of OAT3 transporter (OAT3 [8]): weak inhibitor
Inhibition of OCT2 transporter (OCT2 [9]): weak inhibitor
Substrate of P‐glycoprotein efflux transporter (P‐glycoprotein): substrate
Substrate of breast cancer resistance protein efflux transporter [10]: substrate
Substrate of OATP1B1 uptake transporter (OATP1B1): not a substrate
Substrate of OATP1B3 uptake transporter (OATP1B3): not a substrate
Substrate of OATP2B1 uptake transporter (OATP2B1): not a substrate
Substrate of OCT1 uptake transporter (OCT1): not a substrate
Substrate of OAT1 uptake transporter (OAT1): not a substrate
Substrate of OAT3 uptake transporter (OAT3 [11]): not a substrate
Substrate of OCT2 uptake transporter (OCT2 [12]): not a substrate
GMR (90% CI) Cmax, analyte Ertugliflozin ([3]; Test Ertugliflozin + Metformin / Reference Ertugliflozin): 97.1 (88.8, 106.3) %
AUC(0-t) [3, 14]: 1380 ng·h/mL
Cmax [3, 14]: 279 ng/mL
Tmax [3, 14]: 1.02 h
half-life [3, 14]: 11.8 ± 2.34 h
GMR (90% CI) Cmax, analyte Ertugliflozin ([2]; Test Ertugliflozin + Simvastatin / Reference Ertugliflozin): 105.2 (98.3, 112.5) %
AUC(0-t) ([2]; both, human, in vivo, 15 mg): 1380 ng·h/mL
Cmax ([2]; both, human, in vivo, 15 mg): 273 ng/mL
half-life ([2]; both, human, in vivo, 15 mg): 12.3 ± 3.07 h
